Test results reported in article PMC10910856 (RSC Advances, 2024).

System: α-glucosidase
Experiment: Alpha-glucosidase inhibitory assay
Assay type: biochemical, Bovine
Conditions: for IC50: read-out: α-Glucosidase IC50 (μM ± SD), mean of three replicates

With `CC1=NN(c2ccccc2)C(=O)C1=NNc1ccc(S(N)(=O)=O)cc1` [Compound 3a, 4-(2-(3-Methyl-5-oxo-1-phenyl-1,5-dihydro-4H-pyrazol-4-ylidene) hydrazinyl)benzenesulfonamide] the “times more active towards α-glucosidase enzyme than α-amylase enzyme” value (ratio of IC50 values) was 21 times and the IC50 was 19.4 ± 2.7 µM.

In the case of `CC1=NN(c2ccc(Cl)cc2)C(=O)C1=NNc1ccc(S(N)(=O)=O)cc1` [Compound 3b, 4-(2-(1-(4-Chlorophenyl)-3-methyl-5-oxo-1,5-dihydro-4H-pyrazol-4-ylidene)hydrazinyl)benzenesulfonamide], the IC50 is reported as 25.1 ± 0.7 µM.

Work on `CC1=NN(c2ccc(F)cc2)C(=O)C1=NNc1ccc(S(N)(=O)=O)cc1` [Compound 3e, 4-(2-(1-(4-Fluorophenyl)-3-methyl-5-oxo-1,5-dihydro-4H-pyrazol-4-ylidene)hydrazinyl)benzenesulfonamide] yielded an IC50 of 44.8 ± 3.4 µM.

Molecule `CC1=NN(c2cccc(C)c2)C(=O)C1=NNc1ccc(S(N)(=O)=O)cc1` [Compound 3f, 4-(2-(3-Methyl-5-oxo-1-(m-tolyl)-1,5-dihydro-4H-pyrazol-4-ylidene)-hydrazinyl)benzenesulfonamide] has an IC50 of 55.4 ± 4.8 µM.

With `CC1=NN(c2ccc(C)cc2)C(=O)C1=NNc1ccc(S(N)(=O)=O)cc1` [Compound 3g, 4-(2-(3-Methyl-5-oxo-1-(p-tolyl)-1,5-dihydro-4H-pyrazol-4-ylidene)-hydrazinyl)benzenesulfonamide] the IC50 was 99.1 ± 6.8 µM.

`CC1=NN(c2cccc([N+](=O)[O-])c2)C(=O)C1=NNc1ccc(S(N)(=O)=O)cc1` [Compound 3h, 4-(2-(3-Methyl-1-(3-nitrophenyl)-5-oxo-1,5-dihydro-4H-pyrazol-4-ylidene)hydrazinyl)benzenesulfonamide] showed an IC50 of 25.6 ± 2.1 µM.

`CC1=NN(c2cc(Cl)ccc2Cl)C(=O)C1=NNc1ccc(S(N)(=O)=O)cc1` [Compound 3i, 4-(2-(1-(2,5-Dichlorophenyl)-3-methyl-5-oxo-1,5-dihydro-4H-pyrazol-4-ylidene)hydrazinyl)benzenesulfonamide] was tested, and the IC50 was 50.2 ± 4.8 µM.

With `CC1=NN(c2ccccn2)C(=O)C1=NNc1ccc(S(N)(=O)=O)cc1` [Compound 3j, 4-(2-(3-Methyl-5-oxo-1-(pyridin-2-yl)-1,5-dihydro-4H-pyrazol-4-ylidene)hydrazinyl)benzenesulfonamide] the IC50 was 82.7 ± 7.4 µM.

Work on `CC1=NNC(=O)C1=NNc1ccc(S(N)(=O)=O)cc1` [Compound 4, 4-(2-(3-Methyl-5-oxo-1,5-dihydro-4H-pyrazol-4-ylidene)hydrazinyl)-benzenesulfonamide] yielded an IC50 of 76 ± 6.1 µM.

With `CC1=NOC(=O)C1=NNc1ccc(S(N)(=O)=O)cc1` [Compound 5, 4-(2-(3-Methyl-5-oxoisoxazol-4(5H)-ylidene)hydrazinyl)benzene-sulfonamide] the IC50 was 78.7 ± 5.9 µM.

With `CC1=NNC(=S)NC(=O)C1/N=N/c1ccc(S(N)(=O)=O)cc1` (stereo not shown) [Compound 7, (E)-4-((7-methyl-5-oxo-3-thioxo-3,4,5,6-tetrahydro-2H-1,2,4-triazepin-6-yl)diazenyl)benzenesulfonamide] the IC50 was 85.4 ± 2.3 µM.

Work on `CC1=NCCNC(=O)C1=NNc1ccc(S(N)(=O)=O)cc1` [Compound 8, 4-(2-(5-Methyl-7-oxo-1,2,3,7-tetrahydro-6H-1,4-diazepin-6-ylidene)hydrazinyl)benzenesulfonamide] yielded an IC50 of 110 ± 6.7 µM.
